Measurements published in patent publication US20070208166A1, “Tao Kinase Modulators And Method Of Use” (Exelixis, Inc., priority 2003, published 2007).
pIC50: −log10 of the molar value.

Columns and labels:
Format in all cases: biochemical
[1] = biological target: T1, KIAA 1361 (baculovirus expressed human KIAA 1361 kinase domain 2-322) (Homo sapiens, UniProt Q7L7X3); test: KIAA 1361 Luciferase-Coupled Chemiluminescent Kinase assay (LCCA); conditions: 2 μM ATP, 10 μM MBP, 12 nM KIAA 1361, 2 hours; read-out: KIAA1361 inhibition IC50
T1 construct: human KIAA 1361 kinase domain 2-322; made in house
T1 sequence (Q7L7X3 2-322): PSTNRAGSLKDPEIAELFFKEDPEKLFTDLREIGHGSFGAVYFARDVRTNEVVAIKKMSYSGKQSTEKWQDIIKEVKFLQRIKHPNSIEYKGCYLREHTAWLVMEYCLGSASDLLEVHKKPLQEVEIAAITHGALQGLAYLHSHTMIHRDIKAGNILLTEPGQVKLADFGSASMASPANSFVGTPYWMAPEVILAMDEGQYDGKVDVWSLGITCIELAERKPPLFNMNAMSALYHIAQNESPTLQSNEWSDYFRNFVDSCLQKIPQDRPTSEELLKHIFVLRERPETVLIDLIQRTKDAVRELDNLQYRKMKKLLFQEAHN
Method in brief: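 KIAA 1361 kinase domain 2-322 (baculovirus, 12 nM) with 2 μM ATP and 10 μM MBP in Tris pH 7.5, MgCl2, MnCl2; 2 h, ambient. Remaining ATP read by luciferase chemiluminescence; 10 concentrations, IC50 by four-parameter fit.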

JIK = biological target: T2, JIK (Homo sapiens, UniProt Q9H2K8); test: JIK Luciferase-Coupled Chemiluminescent Kinase assay (LCCA); conditions: 2 μM ATP, 10 μM MBP, 6 nM JIK, 2 hours; read-out: JIK inhibition IC50
T2 construct: 6 nM JIK (baculovirus expressed human KIAA 1361 kinase domain2-318); made in house
T2 sequence (Q9H2K8 2-318): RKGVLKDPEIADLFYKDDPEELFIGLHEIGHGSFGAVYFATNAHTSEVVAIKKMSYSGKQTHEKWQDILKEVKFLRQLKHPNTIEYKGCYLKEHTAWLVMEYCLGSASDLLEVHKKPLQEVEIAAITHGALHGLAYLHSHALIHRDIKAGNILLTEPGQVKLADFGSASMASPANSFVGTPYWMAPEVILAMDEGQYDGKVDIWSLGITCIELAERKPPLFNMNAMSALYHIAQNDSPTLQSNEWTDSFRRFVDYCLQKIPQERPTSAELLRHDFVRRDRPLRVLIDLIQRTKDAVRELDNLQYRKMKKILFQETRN
Method in brief: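 Baculovirus-expressed human KIAA 1361 kinase domain 2-318 at 6 nM, with 10 μM MBP and 2 μM ATP in Tris pH 7.5 with Mg/Mn, ran 2 h at ambient temperature. Remaining ATP was read by luciferase chemiluminescence. IC50 comes from a 10-concentration four-parameter fit.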

TAO = biological target: T3, TAO (Homo sapiens, UniProt Q9UL54); test: TAO Luciferase-Coupled Chemiluminescent Kinase assay (LCCA); conditions: 2 μM ATP, 10 μM MBP, 12 nM TAO, 2 hours; read-out: TAO inhibition IC50
T3 sequence (Q9UL54 1-1235): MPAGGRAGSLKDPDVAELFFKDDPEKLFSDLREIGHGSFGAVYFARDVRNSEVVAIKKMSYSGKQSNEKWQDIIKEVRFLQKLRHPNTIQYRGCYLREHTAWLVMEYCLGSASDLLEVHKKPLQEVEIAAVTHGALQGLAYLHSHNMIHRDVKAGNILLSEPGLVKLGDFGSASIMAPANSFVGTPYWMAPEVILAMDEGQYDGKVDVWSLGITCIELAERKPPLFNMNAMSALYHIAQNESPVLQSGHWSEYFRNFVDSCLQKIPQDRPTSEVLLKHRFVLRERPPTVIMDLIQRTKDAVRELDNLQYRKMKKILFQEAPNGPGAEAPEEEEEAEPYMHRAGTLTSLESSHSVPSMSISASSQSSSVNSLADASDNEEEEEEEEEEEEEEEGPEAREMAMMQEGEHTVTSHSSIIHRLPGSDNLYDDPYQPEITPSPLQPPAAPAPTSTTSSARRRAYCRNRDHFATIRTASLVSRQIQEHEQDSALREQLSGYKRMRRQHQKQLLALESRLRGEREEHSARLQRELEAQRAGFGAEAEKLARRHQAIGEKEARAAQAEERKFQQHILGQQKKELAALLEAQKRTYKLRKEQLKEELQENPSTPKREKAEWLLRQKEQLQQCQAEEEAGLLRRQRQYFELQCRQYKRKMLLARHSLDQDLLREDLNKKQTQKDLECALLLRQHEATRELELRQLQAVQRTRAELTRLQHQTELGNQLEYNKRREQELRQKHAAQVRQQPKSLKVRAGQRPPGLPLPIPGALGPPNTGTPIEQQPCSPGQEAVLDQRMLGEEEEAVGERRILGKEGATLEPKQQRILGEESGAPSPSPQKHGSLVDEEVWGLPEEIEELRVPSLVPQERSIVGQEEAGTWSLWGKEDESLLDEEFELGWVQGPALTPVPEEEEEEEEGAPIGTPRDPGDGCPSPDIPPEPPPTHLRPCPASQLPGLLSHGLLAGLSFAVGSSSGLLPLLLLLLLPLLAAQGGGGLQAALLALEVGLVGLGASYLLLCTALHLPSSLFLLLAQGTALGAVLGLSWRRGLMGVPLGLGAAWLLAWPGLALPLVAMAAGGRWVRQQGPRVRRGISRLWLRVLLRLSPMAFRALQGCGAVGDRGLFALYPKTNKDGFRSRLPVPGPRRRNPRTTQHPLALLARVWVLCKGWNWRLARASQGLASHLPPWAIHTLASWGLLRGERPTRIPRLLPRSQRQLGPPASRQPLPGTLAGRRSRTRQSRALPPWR

| SMILES | pIC50 [1] | pIC50 (JIK) | pIC50 (TAO) |
| --- | --- | --- | --- |
| O=C(CNC(=O)c1cnc2ccccc2c1)NC1CCCc2ccccc21 (stereo not drawn) [Entry 46, N-[2-oxo-2-(1,2,3,4-tetrahydronaphthalen-1-ylamino)ethyl]quinoline-3-carboxamide] | < 5.30 | < 5.30 | < 5.30 |
| CCc1ccc(-c2ccc(C(=O)NCC(=O)N[C@@H]3CCCc4ccccc43)cc2)cc1 [Entry 76, 4′-ethyl-N-{2-oxo-2-[(1R)-1,2,3,4-tetrahydronaphthalen-1-ylamino]ethyl}biphenyl-4-carboxamide] | < 5.30 | < 5.30 | < 5.30 |
| CCCCCOc1ccc(C(=O)NC(CC(C)C)C(=O)NC2CCCc3ccccc32)cc1 (stereo not drawn) [Entry 35, N˜2˜-{[4-(pentyloxy)phenyl]carbonyl}-N(1,2,3,4-tetrahydronaphthalen-1-yl)leucinamide] | < 5.30 | 6.30 to 7.30 | 5.30 to 6.30 |
| O=C(NC(C(=O)NC1CCCc2ccccc21)c1cccnc1)c1ccc(/N=N/c2ccccc2)cc1 (stereo not drawn) [Entry 26, N-[2-oxo-1-pyridin-3-yl-2-(1,2,3,4-tetrahydronaphthalen-1-ylamino)ethyl]-4-[(E)-phenyldiazenyl]benzamide] | 5.30 to 6.30 | 6.30 to 7.30 | 5.30 to 6.30 |
| COc1ccc2nc(NC(=O)CNC(=O)CCNC(=O)c3ccccc3)sc2c1 [Entry 85, N-(phenylcarbonyl)-beta-alanyl-N-[6-(methyloxy)-1,3-benzothiazol-2-yl]glycinamide] | < 5.30 | < 5.30 | < 5.30 |
| O=C(CNC(=O)C(NC(=O)C(c1ccccc1)C1CCCC1)c1cccnc1)NC1CCCc2ccccc21 (stereo not drawn) [Entry 55, N˜2˜-[{[cyclopentyl(phenyl)acetyl]amino}(pyridin-3-yl)acetyt]-N-(1,2,3,4-tetrahydronaphthalen-1-yl)glycinamide] | < 5.30 | < 5.30 | < 5.30 |
| COc1cccc(OCC(=O)NCC(=O)NC2CCCc3ccccc32)c1 (stereo not drawn) [Entry 28, N˜2˜-({[3-(methyloxy)phenyl]oxy}acetyl)-N-(1,2,3,4-tetrahydronaphthalen-1-yl)glycinamide] | 5.30 to 6.30 | 6.30 to 7.30 | 5.30 to 6.30 |

Continued, values first:

| pIC50 [1] | pIC50 (JIK) | pIC50 (TAO) | SMILES |
| --- | --- | --- | --- |
| > 7.30 | > 7.30 | > 7.30 | CCc1ccc(-c2ccc(C(=O)NCC(=O)NC3CCCc4ccccc43)cc2)cc1 (stereo not drawn) [Entry 4, 4′-ethyl-N-[2-oxo-2-(1,2,3,4-tetrahydronaphthalen-1-ylamino)ethyl]biphenyl-4-carboxamide] |
| 6.30 to 7.30 | 6.30 to 7.30 | 6.30 to 7.30 | CCCCCCc1ccc(C(=O)NCC(=O)NC2CCCc3ccccc32)cc1 (stereo not drawn) [Entry 10, 4-hexyl-N-[2-oxo-2-(1,2,3,4-tetrahydronaphthalen-1-ylamino)ethyl]benzamide] |
| 6.30 to 7.30 | 6.30 to 7.30 | 6.30 to 7.30 | CCCCCCCOc1ccc(C(=O)NCC(=O)NC2CCCc3ccccc32)cc1 (stereo not drawn) [Entry 8, 4-(heptyloxy)-N-[2-oxo-2-(1,2,3,4-tetrahydronaphthalen-1-ylamino)ethyl]benzamide] |
| 6.30 to 7.30 | 6.30 to 7.30 | 5.30 to 6.30 | CCCCCCCc1ccc(C(=O)NCC(=O)NC2CCCc3ccccc32)cc1 (stereo not drawn) [Entry 12, 4-heptyl-N-[2-oxo-2-(1,2,3,4-tetrahydronaphthalen-1-ylamino)ethyl]benzamide] |
| > 7.30 | > 7.30 | > 7.30 | CCc1ccc(-c2ccc(C(=O)NCC(=O)N[C@H]3CCCc4ccccc43)cc2)cc1 [Entry 61, 4′-ethyl-N-{2-oxo-2-[(1S)-1,2,3,4-tetrahydronaphthalen-1-ylamino]ethyl}biphenyl-4-carboxamide] |
| 6.30 to 7.30 | 6.30 to 7.30 | 6.30 to 7.30 | CCc1ccc(-c2ccc(C(=O)NCC(=O)NCc3ccccc3C)cc2)cc1 [Entry 74, 4′-ethyl-N-(2-{[(2-methylphenyl)methyl]amino}-2-oxoethyl)biphenyl-4-carboxamide] |
| 6.30 to 7.30 | 6.30 to 7.30 | 5.30 to 6.30 | CC(C)c1ccc(NC(=O)N2CCC[C@H]2C(=O)NCc2ccc(Cl)c(Cl)c2)cc1 [Entry 24, (2S)-N˜2˜-[(3,4-dichlorophenyl)methyl]-N˜1˜-[4-(1-methylethyl)phenyl]pyrrolidine-1,2-dicarboxamide] |
